Experiments:
Format in all cases: physicochemical
[1] = BET specific surface area of powders
[2] = Dissolution of drug from powders in dissolution media (FeSSIF); details: 60 minutes
Text: This media is used to simulate gastrointestinal conditions. FeSSIF is the dissolution media that the powders produced in the following examples are dispersed into to quantitate the amount of drug dissolved as a function of time.

[3] = Particle size of powders (time-of-flight, AERO-[…])
Description: (§1) An aliquot of 0.1 g bovine insulin was dissolved in 20 ml HCl (pH=2), the solution was then titrated by 0.1 N NaOH to pH 7.4. The feed solution was then atomized using an ISCO pump by spray freezing into liquid nitrogen. The nozzle used was polyetheretherketone tubing with a diameter of 63.5 μm. The flow rate was 14 ml/min at 4000 psi. The frozen particles were collected and dried in a tray lyophilizer.
The span index is used to described the polydispersity in a given particle size distribution and is defined as (D90-D10)/D50, where D10, D50, and D90 are the respective particle size at 10, 50, 90 percent cumulative percent undersize.

[4] = Chemical stability of insulin: level of A-21 desamido insulin; details: stored at −4° C.
Description: as §1, with “lyophilizer. The resulting particles were highly porous. […] The SFL process decreased the level of covalent insulin dimer (Table 2). The mean particle size diameter as determined by time-of-flight measurement was 5.06 microns. SEM photographs reveal that the particle is an aggregate composed of small domains of insulin.” for “lyophilizer.”
(§2) The SFL insulin powder was prepared according to the procedure outlined in Example 1 with same formulation. The SFL insulin powder was stored at −4° C. The samples were taken out at 6, 12 and 24 weeks.

[5] = Chemical stability of insulin: level of covalent insulin dimer; details: for percentage of covalent insulin dimer: stored at −4° C.
Description: as §1, with “lyophilizer. The resulting particles were highly porous. […] The SFL process decreased the level of covalent insulin dimer (Table 2). The mean particle size diameter as determined by time-of-flight measurement was 5.06 microns. SEM photographs reveal that the particle is an aggregate composed of small domains of insulin.” for “lyophilizer.”
as §2

[6] = Contact angle of powder compacts against purified water (wettability); details: compacts of powders
Text: The two solutions were mixed and allowed to equilibrate to generate a water-soluble inclusion complex between danazol and HPβCD. The solution was then processed by SFL and freeze-dried in a tray lyophilizer. The solution was atomized directly into liquid nitrogen through an insulated polyetheretherketone (PEEK) nozzle with a 63.5 μm orifice at 5000 psi constant pressure supplied by an ISCO syringe pump. The atomized frozen powder was then collected by sieve filtration and freeze-dried. […] Measurement of the contact angle of compacts of the various samples investigated allowed for the determination of the wettability of the powders. […] A lower contact angle coincided with enhanced wettability of the powder in aqueous dissolution media. […] The two solutions were mixed to form a one-phase cosolvent solution. The solution was then processed by SFL and freeze-dried and fluidized in an atmospheric freeze-drying (ATMFD) chamber. […] The atomized frozen powder was then collected by sieve filtration and freeze-dried using a cryogenic atmospheric (ATMFD) fluidized bed apparatus. […] The microparticles are porous and have a high surface area. […] Measurement of the contact angle of compacts of the various samples investigated allowed for the determination of the wettability of the powders. […] A lower contact angle coincided with a better wettability of the powder in aqueous dissolution media. […]

Compound: C#C[C@]1(O)CC[C@H]2[C@@H]3CCC4=Cc5oncc5C[C@]4(C)[C@H]3CC[C@@]21C [Danazol]
- BET surface area [1]: 0.52 m^2/g
- amount of danazol dissolved [2]: 21%

Compound: bovine insulin [Bulk insulin]
- Mean Particle Size ([3]; time-of-flight): 14.24 μm
- percentage of A-21 desamido ([4]; 12 weeks): 2.61 percentage
- percentage of A-21 desamido ([4]; 24 weeks): 2.72 percentage
- percentage of A-21 desamido ([4]; Initial): 2.46 percentage
- percentage of covalent insulin dimer ([5]; 12 weeks): 1.18 percentage
- percentage of covalent insulin dimer ([5]; 24 weeks): 1.15 percentage
- Covalent Insulin Dimer (percent) ([5]; Example 1, after SFL and lyophilization vs bulk): 0.25%
- percentage of covalent insulin dimer ([5]; Initial): 0.5 percentage

Compound: NC(=O)N1c2ccccc2C=Cc2ccccc21 [CBZ, carbamazepine]
- Span Index (D90-D10)/D50 [3]: 2.94
- D10 ([3]; time-of-flight, 10 percent cumulative undersize): 15.56 μm
- D50 ([3]; time-of-flight, 50 percent cumulative undersize): 39.70 μm
- D90 ([3]; time-of-flight, 90 percent cumulative undersize): 132.33 μm

Compound: C#C[C@]1(O)CC[C@H]2[C@@H]3CCC4=Cc5oncc5C[C@]4(C)[C@H]3CC[C@@]21C [SFL Danazol Alone, danazol]
- Average Contact Angle ± S.D. against purified water [6]: 64.3 ± 1.1 °
- Average Contact Angle ± S.D. against purified water ([6]; listed as danazol alone): 64.3 °

— patent US6862890B2, “Process for production of nanoparticles and microparticles by spray freezing into liquid” (Board of Regents, University of Texas System, priority 2001, dated 2005)
